# Assay results taken from patent US11717508B2, “Compounds, compositions, and methods for inhibiting bacterial growth” (priority 2016, dated 2023).
# Values joined by “and” are separate entries in the source; they are usually repeats but may differ in a detail not shown here. Equal values may be shown once. Read-outs that look alike come from different tables or passages of the source.
# System: DosRST regulon
# Assay type: cell-based
# Details: for Counts per million (CPM) WT_HC103A: replicates 1, 2
structure (smiles),measurement,setting,value
"O=C(Nc1cccc(O)c1)c1cccc(NC(=O)c2cccs2)c1 [HC103A, N-[3-[(3 hydroxyphenyl)carbamoyl]phenyl]thiophene-2-carboxamide]",genes downregulated by compound (total),"40 μM, 6 days, >2-fold, p<0.05",90 genes
same,downregulation of tgs1 gene (transcriptional profiling),"CDC1551, 40 μM, 6 days",~180 fold
same,WT DMSO/WT HC103A fold change,gene MT36S5 Rv3551,0.4042
same,log2 Fold change,gene MT36S5 Rv3551,−1.307
same,WT DMSO/WT HC103A fold change,gene MT0086 Rv0079,0.2341
same,log2 Fold change,gene MT0086 Rv0079,−2.095
same,WT DMSO/WT HC103A fold change,gene MT0087 Rv0080,0.2783
same,log2 Fold change,gene MT0087 Rv0080,−1.845
same,WT DMSO/WT HC103A fold change,gene MT0207 Rv0197,3.65
same,log2 Fold change,gene MT0207 Rv0197,1.868
same,WT DMSO/WT HC103A fold change,gene MT0337 Rv0322 udgA,2.459
same,log2 Fold change,gene MT0337 Rv0322 udgA,1.298
same,WT DMSO/WT HC103A fold change,gene MT0468 Rv0452,2.465
same,log2 Fold change,gene MT0468 Rv0452,1.301
same,WT DMSO/WT HC103A fold change,gene MT0491 Rv0474,2.323
same,log2 Fold change,gene MT0491 Rv0474,1.216
same,WT DMSO/WT HC103A fold change,gene MT0585 Rv0559c,5.989
same,log2 Fold change,gene MT0585 Rv0559c,2.582
same,WT DMSO/WT HC103A fold change,gene MT0586 Rv0560c,282
same,log2 Fold change,gene MT0586 Rv0560c,8.139
same,WT DMSO/WT HC103A fold change,gene MT0595 Rv0569,0.1236
same,log2 Fold change,gene MT0595 Rv0569,−3.016
same,WT DMSO/WT HC103A fold change,gene MT0596 Rv0570 nrdZ,0.02807
same,log2 Fold change,gene MT0596 Rv0570 nrdZ,−5.155
same,Counts per million (CPM) WT_HC103A,gene MT0596 Rv0570 nrdZ,73.81 CPM and 59.09 CPM
same,WT DMSO/WT HC103A fold change,gene MT0597 Rv0571c,0.1705
same,log2 Fold change,gene MT0597 Rv0571c,−2.552
same,Counts per million (CPM) WT_HC103A,gene MT0597 Rv0571c,71.16 CPM and 45.13 CPM
same,WT DMSO/WT HC103A fold change,gene MT0598,0.1036
same,log2 Fold change,gene MT0598,−3.27
same,Counts per million (CPM) WT_HC103A,gene MT0598,38.26 CPM and 19.74 CPM
same,WT DMSO/WT HC103A fold change,gene MT0599 Rv0572c,0.05128
same,log2 Fold change,gene MT0599 Rv0572c,−4.028
same,Counts per million (CPM) WT_HC103A,gene MT0599 Rv0572c,49.68 CPM and 34.61 CPM
same,WT DMSO/WT HC103A fold change,gene MT0600,0.02301
same,log2 Fold change,gene MT0600,−5.442
same,Counts per million (CPM) WT_HC103A,gene MT0600,44.59 CPM and 9.221 CPM
same,WT DMSO/WT HC103A fold change,gene MT0601 Rv0573c,0.1124
same,log2 Fold change,gene MT0601 Rv0573c,−3.153
same,Counts per million (CPM) WT_HC103A,gene MT0601 Rv0573c,11.49 CPM and 9.546 CPM
same,WT DMSO/WT HC103A fold change,gene MT0602 Rv0574c,0.05787
same,log2 Fold change,gene MT0602 Rv0574c,−4.111
same,Counts per million (CPM) WT_HC103A,gene MT0602 Rv0574c,26.39 CPM and 16.69 CPM
same,WT DMSO/WT HC103A fold change,gene MT0808 Rv0784,4.409
same,log2 Fold change,gene MT0808 Rv0784,2.141
same,WT DMSO/WT HC103A fold change,gene MT0846 Rv0824c desA1,0.3753
same,log2 Fold change,gene MT0846 Rv0824c desA1,−1.414
same,Counts per million (CPM) WT_HC103A,gene MT0846 Rv0824c desA1,"2,581.69 CPM and 3,416.39 CPM"
same,WT DMSO/WT HC103A fold change,gene MT0910 Rv0887c,2.543
same,log2 Fold change,gene MT0910 Rv0887c,1.346
same,WT DMSO/WT HC103A fold change,gene MT1095 Rv1065,0.3758
same,log2 Fold change,gene MT1095 Rv1065,−1.412
same,Counts per million (CPM) WT_HC103A,gene MT1095 Rv1065,198.5 CPM and 168.6 CPM
same,WT DMSO/WT HC103A fold change,gene MT1126 Rv1094 desA2,0.3586
same,log2 Fold change,gene MT1126 Rv1094 desA2,−1.44
same,Counts per million (CPM) WT_HC103A,gene MT1126 Rv1094 desA2,"2,249.03 CPM and 2,771.69 CPM"
same,WT DMSO/WT HC103A fold change,gene MT1294 Rv1255c,3.371
same,log2 Fold change,gene MT1294 Rv1255c,1.753
same,WT DMSO/WT HC103A fold change,gene MT1322 Rv1284,0.3386
same,log2 Fold change,gene MT1322 Rv1284,−1.562
same,Counts per million (CPM) WT_HC103A,gene MT1322 Rv1284,223.7 CPM and 205.3 CPM
same,WT DMSO/WT HC103A fold change,gene MT1608 Rv1557 mmpL6,8.81
same,log2 Fold change,gene MT1608 Rv1557 mmpL6,3.139
same,WT DMSO/WT HC103A fold change,gene MT1692 Rv1654 argB,0.2745
same,log2 Fold change,gene MT1692 Rv1654 argB,−1.865
same,Counts per million (CPM) WT_HC103A,gene MT1692 Rv1654 argB,176.3 CPM and 60.13 CPM
same,WT DMSO/WT HC103A fold change,gene MT1693 Rv1655 argD,0.2592
same,log2 Fold change,gene MT1693 Rv1655 argD,−1.948
same,Counts per million (CPM) WT_HC103A,gene MT1693 Rv1655 argD,135.1 CPM and 51.69 CPM
same,WT DMSO/WT HC103A fold change,gene MT1694 Rv1656 argF,0.214
same,log2 Fold change,gene MT1694 Rv1656 argF,−2.224
same,Counts per million (CPM) WT_HC103A,gene MT1694 Rv1656 argF,115.2 CPM and 42.01 CPM
same,WT DMSO/WT HC103A fold change,gene MT1774 Rv1733c,0.01521
same,log2 Fold change,gene MT1774 Rv1733c,−6.039
same,Counts per million (CPM) WT_HC103A,gene MT1774 Rv1733c,40.51 CPM and 8.961 CPM
same,WT DMSO/WT HC103A fold change,gene MT1775,0.1012
same,log2 Fold change,gene MT1775,−3.305
same,Counts per million (CPM) WT_HC103A,gene MT1775,101.9 CPM and 24.16 CPM
same,WT DMSO/WT HC103A fold change,gene MT1776 Rv1735c,0.2125
same,log2 Fold change,gene MT1776 Rv1735c,−2.234
same,Counts per million (CPM) WT_HC103A,gene MT1776 Rv1735c,4.991 CPM and 2.922 CPM
same,WT DMSO/WT HC103A fold change,gene MT1777,0.02322
same,log2 Fold change,gene MT1777,−5.428
same,Counts per million (CPM) WT_HC103A,gene MT1777,5.142 CPM and 2.013 CPM
same,WT DMSO/WT HC103A fold change,gene MT1778 Rv1736c narX,0.0157
same,log2 Fold change,gene MT1778 Rv1736c narX,−5.993
same,Counts per million (CPM) WT_HC103A,gene MT1778 Rv1736c narX,122.3 CPM and 26.17 CPM
same,WT DMSO/WT HC103A fold change,gene MT1779 Rv1737c narK2,0.01434
same,log2 Fold change,gene MT1779 Rv1737c narK2,−6.124
same,Counts per million (CPM) WT_HC103A,gene MT1779 Rv1737c narK2,36.9 CPM and 14.55 CPM
same,WT DMSO/WT HC103A fold change,gene MT1780 Rv1738,0.01855
same,log2 Fold change,gene MT1780 Rv1738,−5.752
same,Counts per million (CPM) WT_HC103A,gene MT1780 Rv1738,133.5 CPM and 33.12 CPM
same,WT DMSO/WT HC103A fold change,gene MT1823 (Rv1773c),0.36
same,log2 Fold change,gene MT1823 (Rv1773c),−1.434
same,Counts per million (CPM) WT_HC103A,gene MT1823 Rv1773c,222.7 CPM and 163.7 CPM
same,WT DMSO/WT HC103A fold change,gene MT1851 Rv1813c,0.01771
same,log2 Fold change,gene MT1851 Rv1813c,−5.819
same,Counts per million (CPM) WT_HC103A,gene MT1851 Rv1813c,58.53 CPM and 24.74 CPM
same,WT DMSO/WT HC103A fold change,gene MT1860 Rv1812c,0.3778
same,log2 Fold change,gene MT1860 Rv1812c,−1.404
same,Counts per million (CPM) WT_HC103A,gene MT1860 Rv1812c,78.19 CPM and 78.7 CPM
same,WT DMSO/WT HC103A fold change,gene MT1882 (Rv1834),0.3504
same,log2 Fold change,gene MT1882 (Rv1834),−1.472
same,Counts per million (CPM) WT_HC103A,gene MT1882 Rv1834,28.36 CPM and 29.22 CPM
same,WT DMSO/WT HC103A fold change,gene MT1986 (Rv1936),0.2546
same,log2 Fold change,gene MT1986 (Rv1936),−1.918
same,Counts per million (CPM) WT_HC103A,gene MT1986 Rv1936,72.29 CPM and 31.56 CPM
same,WT DMSO/WT HC103A fold change,gene MT1987 (Rv1937),0.2435
same,log2 Fold change,gene MT1987 (Rv1937),−2.038
same,Counts per million (CPM) WT_HC103A,gene MT1987 Rv1937,83.71 CPM and 36.75 CPM
same,WT DMSO/WT HC103A fold change,gene MT1988 Rv1938 ephB,0.2508
same,log2 Fold change,gene MT1988 Rv1938 ephB,−1.995
same,Counts per million (CPM) WT_HC103A,gene MT1988 Rv1938 ephB,32.14 CPM and 15.97 CPM
same,WT DMSO/WT HC103A fold change,gene MT1989 (Rv1939),0.2883
same,log2 Fold change,gene MT1989 (Rv1939),−1.794
same,Counts per million (CPM) WT_HC103A,gene MT1989 Rv1939,16.33 CPM and 8.831 CPM
same,WT DMSO/WT HC103A fold change,gene MT2016 (Rv1964),0.2736
same,log2 Fold change,gene MT2016 (Rv1964),−1.87
same,Counts per million (CPM) WT_HC103A,gene MT2016 Rv1964,93.32 CPM and 56.95 CPM
same,WT DMSO/WT HC103A fold change,gene MT2017,0.1841
same,log2 Fold change,gene MT2017,−2.441
same,Counts per million (CPM) WT_HC103A,gene MT2017,44.46 CPM and 29.87 CPM
same,WT DMSO/WT HC103A fold change,gene MT2018 (Rv1966 mce3),0.194
same,log2 Fold change,gene MT2018 (Rv1966 mce3),−2.366
same,Counts per million (CPM) WT_HC103A,gene MT2018 Rv1966 mce3,54.83 CPM and 33.77 CPM
